The text below walks through data of article PMC3772838, “Preclinical Development of a Novel Class of CXCR4 Antagonist Impairing Solid Tumors Growth and Metastases” (PLoS ONE, 2013).

The subject of this assay is CCRF-CEM human T-Leukemia cells. Put plainly: CCRF-CEM cell migration. The note with it: Figure S4. The format is cell-based. As to the method: [The procedure below names another cell line; the source lists this cell line under the same test.] Migration was assayed in 24-well Transwell chambers (Corning Inc., Corning, NY) using inserts with an 8-µm pore membrane. Membranes were precoated with collagen (human collagen type I/III) and fibronectin (20 µg/mL each). PES43 cells were placed in the upper chamber (2.5×10^5 cells/well) in IMDM containing 1% BSA (migration media) in the presence of AMD3100 or peptides; 100 ng/mL CXCL12 was added to the lower chamber. After 16 h incubation, cells on the upper surface of the filter were removed using a cotton wool swab; migration of cells in migration media alone was compared with migration in media containing CXCL12. The cells were counted in ten different fields (original magnification ×40). The migration index was defined as the ratio between migrating cells in the experimental group and migrated cells in the control group. For the wound closure assay, tested cells were allowed to reach confluence in six-well plates containing serum-depleted growth medium and scratched with pipette tips to make wounds. The wound closure was observed microscopically 6 hours post-wounding (OKO Time Lapse).
(TIF) Click here for additional data file.

Bridges are numbered along the chain shown (N, C = ends). Where no end group is shown, it is not given here.

For the substance “Arg-Ala-[Cys-Arg-Phe-Phe-Cys] (RACRFFC; disulfide 3-7) [Peptide R, CXCL12-mimetic disulfide-cyclic peptide]”, the CCRF-CEM migration entry is listed as “inhibited CCRF-CEM human T-Leukemia cells migration in a dose-dependent manner”.
